Source: patent US20250382332A1, “NOVEL ALPHA-FACTOR BASED PEPTIDES WITH ANTIFUNGAL ACTIVITY” (INVAIO SCIENCES, INC., priority 2024, published 2025)
Peptide text beside a SMILES is read from it.

System: Botrytis cinerea (B05.10)
Test: Resazurin antifungal assay of 180 alpha-factor peptide variants towards Botrytis (Example 2)
Format: cell-based
Set-up: key to active against Botrytis at 15 μM / active against Botrytis at 10 μM: Peptides that showed greater than 90% inhibition were considered active against Botrytis
Conditions: for Inhibition at 50 μM / Inhibition at 100 μM / Inhibition at 10 μM / Inhibition at 15 μM / Inhibition at 20 μM: % inhibition of fungal growth, Botrytis conidia, resazurin; for Inhibition at 50 μM: peptide 50 μM; for Inhibition at 100 μM: peptide 100 μM; for Inhibition at 10 μM: peptide 10 μM; for Inhibition at 20 μM: peptide 20 μM
Summary of the method: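 Resazurin viability read-out (570/620 nm fluorescence) after a 24 h, 20° C incubation of B05.10 conidia, 5000 per well, with peptide at final 10-100 μM. Growth inhibition (%) was derived by subtracting conidia-only fluorescence; four replicates per treatment.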

CSCC[C@H](NC(=O)[C@@H]1CCCN1C(=O)[C@H](CCC(N)=O)NC(=O)CNC(=O)[C@H](CC(C)C)NC(=O)[C@H](CCCCN)NC(=O)[C@H](Cc1ccccc1)NC(=O)[C@H](CCC(N)=O)NC(=O)CNC(=O)[C@H](Cc1c[nH]c2ccccc12)NC(=O)[C@H](Cc1c[nH]cn1)NC(=O)[C@@H]1CCCN1)C(=O)N[C@@H](Cc1ccc(O)cc1)C(=O)O [compound 43] (H-PHWGQFKLGQPMY-OH; N-terminus and C-terminus assumed)
Inhibition at 50 μM: <90% | Inhibition at 100 μM: <90%

CSCC[C@H](NC(=O)CNC(=O)[C@H](CCC(N)=O)NC(=O)CNC(=O)[C@@H](NC(=O)[C@H](CCCCN)NC(=O)[C@H](CC(C)C)NC(=O)[C@H](CC(N)=O)NC(=O)[C@@H](NC(=O)[C@H](Cc1c[nH]c2ccccc12)NC(=O)[C@H](Cc1c[nH]cn1)NC(=O)[C@@H]1CCCN1)C(C)C)[C@@H](C)O)C(=O)N[C@@H](Cc1ccc(O)cc1)C(=O)O [compound 44] (H-PHWVNLKTGQGMY-OH; N-terminus and C-terminus assumed)
Inhibition at 50 μM: <90% | Inhibition at 100 μM: <90%

CSCC[C@H](NC(=O)[C@H](CO)NC(=O)[C@H](CCC(N)=O)NC(=O)CNC(=O)[C@@H]1CCCN1C(=O)[C@H](CCCCN)NC(=O)[C@H](Cc1ccccc1)NC(=O)[C@H](CCC(N)=O)NC(=O)[C@H](CC(C)C)NC(=O)CNC(=O)[C@@H](NC(=O)[C@@H]1CCCN1)[C@@H](C)O)C(=O)N[C@@H](Cc1ccc(O)cc1)C(=O)O [compound 45] (H-PTGLQFKPGQSMY-OH; N-terminus and C-terminus assumed)
Inhibition at 50 μM: <90% | Inhibition at 100 μM: <90%

CSCC[C@H](NC(=O)[C@@H]1CCCN1C(=O)[C@H](CCC(N)=O)NC(=O)CNC(=O)[C@@H](NC(=O)[C@H](CC(N)=O)NC(=O)[C@H](CC(C)C)NC(=O)[C@H](CO)NC(=O)[C@H](CC(C)C)NC(=O)[C@H](Cc1c[nH]c2ccccc12)NC(=O)[C@H](Cc1c[nH]cn1)NC(=O)[C@@H](N)Cc1c[nH]c2ccccc12)[C@@H](C)O)C(=O)N[C@@H](Cc1ccc(O)cc1)C(=O)O [compound 46] (H-WHWLSLNTGQPMY-OH; N-terminus and C-terminus assumed)
Inhibition at 50 μM: <90% | Inhibition at 100 μM: 97.03%

CSCC[C@H](NC(=O)[C@@H]1CCCN1C(=O)[C@H](CCC(N)=O)NC(=O)CNC(=O)[C@@H]1CCCN1C(=O)[C@H](Cc1c[nH]c2ccccc12)NC(=O)[C@H](CC(C)C)NC(=O)[C@H](CCC(=O)O)NC(=O)[C@H](CC(C)C)NC(=O)[C@H](CC(=O)O)NC(=O)[C@H](Cc1c[nH]cn1)NC(=O)[C@@H](N)CCCCN)C(=O)N[C@@H](Cc1ccc(O)cc1)C(=O)O [compound 47] (H-KHDLELWPGQPMY-OH; N-terminus and C-terminus assumed)
Inhibition at 50 μM: <90% | Inhibition at 100 μM: <90%

CSCC[C@H](NC(=O)[C@@H]1CCCN1C(=O)[C@H](CCC(N)=O)NC(=O)CNC(=O)[C@@H]1CCCN1C(=O)[C@H](CCCCN)NC(=O)[C@H](CC(C)C)NC(=O)[C@H](C)NC(=O)[C@H](CC(C)C)NC(=O)CNC(=O)CNC(=O)[C@@H](N)Cc1c[nH]c2ccccc12)C(=O)N[C@@H](Cc1ccc(O)cc1)C(=O)O [compound 48] (H-WGGLALKPGQPMY-OH; N-terminus and C-terminus assumed)
Inhibition at 50 μM: <90% | Inhibition at 100 μM: <90%

CSCC[C@H](NC(=O)[C@@H]1CCCN1C(=O)[C@H](CCC(N)=O)NC(=O)CNC(=O)[C@@H]1CCCN1C(=O)[C@H](Cc1ccc(O)cc1)NC(=O)[C@H](CC(C)C)NC(=O)[C@H](CCCCN)NC(=O)[C@H](CC(C)C)NC(=O)[C@H](Cc1c[nH]c2ccccc12)NC(=O)[C@H](CCC(=O)O)NC(=O)[C@@H]1CCCN1)C(=O)N[C@@H](Cc1ccc(O)cc1)C(=O)O [compound 49] (H-PEWLKLYPGQPMY-OH; N-terminus and C-terminus assumed)
Inhibition at 50 μM: <90% | Inhibition at 100 μM: <90%

CSCC[C@H](NC(=O)[C@H](CO)NC(=O)[C@H](CO)NC(=O)CNC(=O)[C@@H]1CCCN1C(=O)[C@H](CCCCN)NC(=O)[C@H](CC(C)C)NC(=O)[C@H](CCC(N)=O)NC(=O)[C@H](CC(C)C)NC(=O)[C@@H](NC(=O)[C@H](CCCNC(=N)N)NC(=O)[C@@H](N)Cc1c[nH]c2ccccc12)C(C)C)C(=O)N[C@@H](Cc1ccc(O)cc1)C(=O)O [compound 50] (H-WRVLQLKPGSSMY-OH; N-terminus and C-terminus assumed)
Inhibition at 50 μM: <90% | Inhibition at 100 μM: <90%

CC[C@H](C)[C@H](NC(=O)[C@H](CCCNC(=N)N)NC(=O)[C@@H](NC(=O)[C@H](Cc1c[nH]c2ccccc12)NC(=O)[C@H](Cc1c[nH]cn1)NC(=O)[C@@H](N)Cc1c[nH]c2ccccc12)C(C)C)C(=O)N[C@@H](Cc1c[nH]c2ccccc12)C(=O)N1CCC[C@H]1C(=O)NCC(=O)N[C@@H](CCC(N)=O)C(=O)N1CCC[C@H]1C(=O)N[C@@H](CCSC)C(=O)N[C@@H](Cc1ccc(O)cc1)C(=O)O [compound 51] (H-WHWVRIWPGQPMY-OH; N-terminus and C-terminus assumed)
Inhibition at 10 μM: <90% | Inhibition at 15 μM (peptide 15 μM): <90% | Inhibition at 20 μM: 97.13% | Inhibition at 50 μM: 100% | Inhibition at 100 μM: 100%

CC[C@H](C)[C@H](NC(=O)[C@H](CCCNC(=N)N)NC(=O)[C@H](CC(C)C)NC(=O)[C@H](Cc1c[nH]c2ccccc12)NC(=O)[C@H](Cc1c[nH]cn1)NC(=O)[C@@H](N)CCCCN)C(=O)N[C@@H](CCCCN)C(=O)N[C@@H](Cc1c[nH]c2ccccc12)C(=O)NCC(=O)N[C@@H](CCC(=O)O)C(=O)N1CCC[C@H]1C(=O)N[C@@H](CCSC)C(=O)N[C@@H](Cc1ccc(O)cc1)C(=O)O [compound 52] (H-KHWLRIKWGEPMY-OH; N-terminus and C-terminus assumed)
Inhibition at 10 μM: <90% | Inhibition at 15 μM (peptide 15 μM): 97.66% | Inhibition at 20 μM: 100% | Inhibition at 50 μM: 100% | Inhibition at 100 μM: 100% | active against Botrytis at 15 μM (peptide 15 μM): active

CSCC[C@H](NC(=O)[C@@H]1CCCN1C(=O)[C@H](CCC(N)=O)NC(=O)CNC(=O)[C@@H](NC(=O)[C@H](CCCCN)NC(=O)[C@H](CC(C)C)NC(=O)[C@H](CCCNC(=N)N)NC(=O)[C@@H](NC(=O)[C@H](Cc1c[nH]c2ccccc12)NC(=O)[C@H](CCCCN)NC(=O)[C@@H](N)Cc1c[nH]c2ccccc12)C(C)C)[C@@H](C)O)C(=O)N[C@@H](Cc1ccc(O)cc1)C(=O)O [compound 53] (H-WKWVRLKTGQPMY-OH; N-terminus and C-terminus assumed)
Inhibition at 10 μM: <90% | Inhibition at 15 μM (peptide 15 μM): <90% | Inhibition at 20 μM: 100% | Inhibition at 50 μM: 100% | Inhibition at 100 μM: 100%

CC[C@H](C)[C@H](NC(=O)[C@H](CCSC)NC(=O)[C@H](Cc1c[nH]cn1)NC(=O)[C@@H](N)CCCCN)C(=O)N[C@@H](CCC(N)=O)C(=O)N[C@@H](CC(C)C)C(=O)N[C@@H](Cc1ccc(O)cc1)C(=O)N[C@@H](Cc1c[nH]c2ccccc12)C(=O)NCC(=O)N[C@@H](CCC(N)=O)C(=O)N1CCC[C@H]1C(=O)N[C@@H](CCSC)C(=O)N[C@@H](Cc1ccc(O)cc1)C(=O)O [compound 54] (H-KHMIQLYWGQPMY-OH; N-terminus and C-terminus assumed)
Inhibition at 10 μM: <90% | Inhibition at 15 μM (peptide 15 μM): <90% | Inhibition at 20 μM: 93.21% | Inhibition at 50 μM: 100% | Inhibition at 100 μM: 100%

CSCC[C@H](NC(=O)CNC(=O)[C@H](CO)NC(=O)CNC(=O)[C@@H]1CCCN1C(=O)[C@H](CCCCN)NC(=O)[C@H](CC(C)C)NC(=O)[C@H](CCCNC(=N)N)NC(=O)[C@H](CC(C)C)NC(=O)[C@H](Cc1ccc(O)cc1)NC(=O)[C@H](CCCNC(=N)N)NC(=O)[C@@H](N)Cc1c[nH]c2ccccc12)C(=O)N[C@@H](Cc1ccc(O)cc1)C(=O)O [compound 55] (H-WRYLRLKPGSGMY-OH; N-terminus and C-terminus assumed)
Inhibition at 10 μM: <90% | Inhibition at 15 μM (peptide 15 μM): <90% | Inhibition at 20 μM: 99.43% | Inhibition at 50 μM: 100% | Inhibition at 100 μM: 100%

CSCC[C@H](NC(=O)[C@@H]1CCCN1C(=O)[C@H](CCC(N)=O)NC(=O)CNC(=O)[C@H](CCCNC(=N)N)NC(=O)[C@H](CCCCN)NC(=O)[C@H](CC(C)C)NC(=O)[C@H](CCCCN)NC(=O)[C@H](CC(C)C)NC(=O)[C@H](CO)NC(=O)[C@H](Cc1c[nH]cn1)NC(=O)[C@@H](N)Cc1c[nH]c2ccccc12)C(=O)N[C@@H](Cc1ccc(O)cc1)C(=O)O [compound 56] (H-WHSLKLKRGQPMY-OH; N-terminus and C-terminus assumed)
Inhibition at 10 μM: <90% | Inhibition at 15 μM (peptide 15 μM): <90% | Inhibition at 20 μM: 99.84% | Inhibition at 50 μM: 100% | Inhibition at 100 μM: 100%

CC[C@H](C)[C@H](NC(=O)[C@H](C)NC(=O)[C@H](CC(C)C)NC(=O)[C@H](Cc1c[nH]c2ccccc12)NC(=O)[C@H](Cc1c[nH]cn1)NC(=O)[C@@H](N)Cc1c[nH]c2ccccc12)C(=O)N[C@@H](Cc1ccccc1)C(=O)N[C@@H](CCCNC(=N)N)C(=O)NCC(=O)N[C@@H](CCC(N)=O)C(=O)N1CCC[C@H]1C(=O)N[C@@H](CCSC)C(=O)N[C@@H](Cc1ccc(O)cc1)C(=O)O [compound 57] (H-WHWLAIFRGQPMY-OH; N-terminus and C-terminus assumed)
Inhibition at 10 μM: 3.45% | Inhibition at 20 μM: <90% | Inhibition at 50 μM: 100% | Inhibition at 100 μM: 100%

CC[C@H](C)[C@H](NC(=O)[C@H](CCC(N)=O)NC(=O)[C@@H](NC(=O)[C@H](Cc1c[nH]c2ccccc12)NC(=O)[C@H](CCCCN)NC(=O)[C@@H](N)Cc1c[nH]c2ccccc12)C(C)C)C(=O)N[C@@H](CCCCN)C(=O)N[C@@H](CCCCN)C(=O)NCC(=O)N[C@@H](C)C(=O)N1CCC[C@H]1C(=O)N[C@@H](CCSC)C(=O)N[C@@H](Cc1ccc(O)cc1)C(=O)O [compound 58] (H-WKWVQIKKGAPMY-OH; N-terminus and C-terminus assumed)
Inhibition at 10 μM: <90% | Inhibition at 20 μM: <90% | Inhibition at 50 μM: 100% | Inhibition at 100 μM: 100%
